Experimental data from patent US11001564B2, “Substituted chromane-8-carboxamide compounds and analogues thereof, and methods using same” (priority 2016, dated 2021).
Read-outs that look alike come from different tables or passages of the source.

Tested on: HBV rcDNA in HepDE19 cells
Experiment: HepDE19 assay with bDNA quantitation of HBV rcDNA
Type: cell-based, hepatitis B virus (HBV)
Details: Hepatitis B virus, HepDE19, 168 h
Summary of the method: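 HepG2-derived HepDE19 cells, switched to Tet-free medium, were exposed 7 days at 37 °C to compound (8-point ½-log series from 25 μM, 0.5% DMSO). HBV rcDNA measured by bDNA assay with HBV-specific probes; EC50/EC90 by 4-parameter fit. CC50 from CellTiter-Glo ATP on replicate plates after 4 days.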

[1] = HepDE19 cells, 7 day incubation, rcDNA by Quantigene 2.0 bDNA assay, read-out: DE-19 bDNA EC50
[2] = read-out: DE-19 bDNA EC50, HepDE19 cells, 7 day incubation, rcDNA by Quantigene 2.0 bDNA assay

## COC(=O)N[C@H]1CCOc2c(C(=O)Nc3ccnc(C)c3)ccc(F)c21 [Compound 135, methyl (S)-(5-fluoro-8-((2-methylpyridin-4-yl)carbamoyl)chroman-4-yl)carbamate]
[1]
  EC50: 9700 nM

## Cc1cc(NC(=O)c2ccc(F)c3c2OCC[C@@H]3NC(=O)OC[C@H]2CCC(=O)N2)ccc1F [Compound 136, ((R)-5-Oxopyrrolidin-2-yl)methyl ((S)-5-fluoro-8-((4-fluoro-3-methylphenyl)carbamoyl)chroman-4-yl)carbamate]
[1]
  EC50: 1200 nM

## Cc1cc(NC(=O)c2ccc(F)c3c2OCC[C@@H]3NC(=O)OC[C@@H]2CCC(=O)N2)ccc1F [Compound 137, ((S)-5-Oxopyrrolidin-2-yl)methyl ((S)-5-fluoro-8-((4-fluoro-3-methylphenyl)carbamoyl)chroman-4-yl)carbamate]
[1]
  EC50: 900 nM

## Cc1cc(NC(=O)c2ccc(F)c3c2OCC[C@@H]3NC(=O)OCCc2ccccn2)ccc1F [Compound 138, 2-(Pyridin-2-yl)ethyl (S)-(5-fluoro-8-((4-fluoro-3-methylphenyl)carbamoyl)chroman-4-yl)carbamate]
[1]
  EC50: 600 nM

## Cc1cc(NC(=O)c2ccc(F)c3c2OCC[C@@H]3NC(=O)OC[C@H]2CCCC(=O)N2)ccc1F [Compound 142, ((R)-6-Oxopiperidin-2-yl)methyl ((S)-5-fluoro-8-((4-fluoro-3-methylphenyl)carbamoyl)chroman-4-yl)carbamate]
[1]
  EC50: 730 nM

## Cc1cc(NC(=O)c2ccc(F)c3c2OCC[C@@H]3NC(=O)OCCN2CCCC2=O)ccc1F [Compound 143, 2-(2-Oxopyrrolidin-1-yl)ethyl (S)-(5-fluoro-8-((4-fluoro-3-methylphenyl)carbamoyl)chroman-4-yl)carbamate]
[1]
  EC50: 1200 nM

## CC(=O)NCCOC(=O)N[C@H]1CCOc2c(C(=O)Nc3ccc(F)c(C)c3)ccc(F)c21 [Compound 146, 2-Acetamidoethyl (S)-(5-fluoro-8-((4-fluoro-3-methylphenyl)carbamoyl)chroman-4-yl)carbamate]
[1]
  EC50: 610 nM

## Cc1cc(NC(=O)c2ccc(F)c3c2OCC[C@@H]3NC(=O)OC[C@@H]2CC(=O)N2)ccc1F [Compound 147, ((S)-4-Oxoazetidin-2-yl)methyl ((S)-5-fluoro-8-((4-fluoro-3-methylphenyl)carbamoyl)chroman-4-yl)carbamate]
[1]
  EC50: 840 nM

## COC(=O)N[C@H]1CCOc2c(C(=O)Nc3ccc(F)c(F)c3)cc(N)cc21 [Compound 148, Methyl (S)-(6-amino-8-((3,4-difluorophenyl)carbamoyl)chroman-4-yl)carbamate]
[1]
  EC50: 6400 nM

## CNC(=O)N[C@H]1CCOc2c(C(=O)Nc3ccc(F)c(F)c3)cc(N)cc21 [Compound 149, (S)-6-Amino-N-(3,4-difluorophenyl)-4-(3-methylureido)chromane-8-carboxamide]
[1]
  EC50: 20000 nM

## Cc1cc(NC(=O)c2ccc(F)c3c2OCC[C@@H]3NC(=O)NCc2ccccn2)ccc1F [Compound 150, (S)-5-Fluoro-N-(4-fluoro-3-methylphenyl)-4-(3-(pyridin-2-ylmethyl)ureido)chromane-8-carboxamide]
[2]
  EC50: 1200 nM

## Cc1cc(NC(=O)c2ccc(F)c3c2OCC[C@@H]3NC(=O)CCc2ccccn2)ccc1F [Compound 151, (S)-5-Fluoro-N-(4-fluoro-3-methylphenyl)-4-(3-(pyridin-2-yl)propanamido)chromane-8-carboxamide]
[1]
  EC50: 560 nM

## Cc1cc(NC(=O)c2ccc(F)c3c2OCC[C@@H]3NC(=O)NCCC(=O)O)ccc1F [Compound 152, (S)-3-(3-(5-Fluoro-8-((4-fluoro-3-methylphenyl)carbamoyl)chroman-4-yl)ureido)propanoic acid]
[1]
  EC50: 15000 nM

## O=C(N[C@H]1CCOc2c(C(=O)Nc3ccc(F)c(Cl)c3)ccc(F)c21)OCCc1ccccn1 [Compound 153, 2-(Pyridin-2-yl)ethyl (S)-(8-((3-chloro-4-fluorophenyl)carbamoyl)-5-fluorochroman-4-yl)carbamate]
[1]
  EC50: 530 nM

## O=C1C[C@@H](COC(=O)N[C@H]2CCOc3c(C(=O)Nc4ccc(F)c(Cl)c4)ccc(F)c32)N1 [Compound 154, ((S)-4-Oxoazetidin-2-yl)methyl ((S)-8-((3-chloro-4-fluorophenyl)carbamoyl)-5-fluorochroman-4-yl)carbamate]
[1]
  EC50: 1100 nM

## O=C1CC[C@H](COC(=O)N[C@H]2CCOc3c(C(=O)Nc4ccc(F)c(Cl)c4)ccc(F)c32)N1 [Compound 155, ((R)-5-Oxopyrrolidin-2-yl)methyl ((S)-8-((3-chloro-4-fluorophenyl)carbamoyl)-5-fluorochroman-4-yl)carbamate]
[1]
  EC50: 1200 nM

## O=C1CC[C@@H](COC(=O)N[C@H]2CCOc3c(C(=O)Nc4ccc(F)c(Cl)c4)ccc(F)c32)N1 [Compound 156, ((S)-5-Oxopyrrolidin-2-yl)methyl ((S)-8-((3-chloro-4-fluorophenyl)carbamoyl)-5-fluorochroman-4-yl)carbamate]
[1]
  EC50: 740 nM

## Nc1cc(C(=O)Nc2ccc(F)c(F)c2)c2c(c1)[C@@H](NC(=O)OCc1ccccn1)CCO2 [Compound 157, Pyridin-2-ylmethyl (S)-(6-amino-8-((3,4-difluorophenyl)carbamoyl)chroman-4-yl)carbamate]
[1]
  EC50: 11000 nM

## CC(C)(C)OC(=O)N[C@H]1CCOc2c(C(=O)Nc3ccc(F)c(Cl)c3)ccc(F)c21 [Compound 158, tert-Butyl (S)-(8-((3-chloro-4-fluorophenyl)carbamoyl)-5-fluorochroman-4-yl)carbamate]
[1]
  EC50: 5800 nM

## O=C(N[C@H]1CCOc2c(C(=O)Nc3ccc(F)c(Cl)c3)ccc(F)c21)OCCN1CCCC1=O [Compound 159, 2-(2-Oxopyrrolidin-1-yl)ethyl (S)-(5-fluoro-8-((3-chloro-4-fluorophenyl)carbamoyl)chroman-4-yl)carbamate]
[1]
  EC50: 410 nM

## O=C(N[C@H]1CCOc2c(C(=O)Nc3ccc(F)c(Cl)c3)ccc(F)c21)OCC(=O)N1CCCC1 [Compound 160, 2-Oxo-2-(pyrrolidin-1-yl)ethyl (S)-(8-((3-chloro-4-fluorophenyl)carbamoyl)-5-fluorochroman-4-yl)carbamate]
[1]
  EC50: 420 nM

## CC(=O)N1CC(COC(=O)N[C@H]2CCOc3c(C(=O)Nc4ccc(F)c(C)c4)ccc(F)c32)C1 [Compound 161, (1-Acetylazetidin-3-yl)methyl (S)-(5-fluoro-8-((4-fluoro-3-methylphenyl)carbamoyl)chroman-4-yl)carbamate]
[1]
  EC50: 850 nM

## CS(=O)(=O)N1CCC(COC(=O)N[C@H]2CCOc3c(C(=O)Nc4ccc(F)c(Cl)c4)ccc(F)c32)CC1 [Compound 162, (1-(Methylsulfonyl)piperidin-4-yl)methyl (S)-(8-((3-chloro-4-fluorophenyl)carbamoyl)-5-fluorochroman-4-yl)carbamate]
[2]
  EC50: 6100 nM

## CN(C)S(=O)(=O)N1CCC(COC(=O)N[C@H]2CCOc3c(C(=O)Nc4ccc(F)c(Cl)c4)ccc(F)c32)CC1 [Compound 163, (1-(N,N-dimethylsulfamoyl)piperidin-4-yl)methyl (S)-(8-((3-chloro-4-fluorophenyl)carbamoyl)-5-fluorochroman-4-yl)carbamate]
[2]
  EC50: 1000 nM

## O=C(N[C@H]1CCOc2c(C(=O)Nc3ccc(F)c(Cl)c3)ccc(F)c21)OCC1CCN(C(=O)CO)CC1 [Compound 164, (1-(2-Hydroxyacetyl)piperidin-4-yl)methyl (S)-(8-((3-chloro-4-fluorophenyl)carbamoyl)-5-fluorochroman-4-yl)carbamate]
[2]
  EC50: 680 nM
